# Molecular target: Vascular endothelial growth factor receptor 2 (Homo sapiens, UniProt P35968)
# Sequence (P35968 whole entry): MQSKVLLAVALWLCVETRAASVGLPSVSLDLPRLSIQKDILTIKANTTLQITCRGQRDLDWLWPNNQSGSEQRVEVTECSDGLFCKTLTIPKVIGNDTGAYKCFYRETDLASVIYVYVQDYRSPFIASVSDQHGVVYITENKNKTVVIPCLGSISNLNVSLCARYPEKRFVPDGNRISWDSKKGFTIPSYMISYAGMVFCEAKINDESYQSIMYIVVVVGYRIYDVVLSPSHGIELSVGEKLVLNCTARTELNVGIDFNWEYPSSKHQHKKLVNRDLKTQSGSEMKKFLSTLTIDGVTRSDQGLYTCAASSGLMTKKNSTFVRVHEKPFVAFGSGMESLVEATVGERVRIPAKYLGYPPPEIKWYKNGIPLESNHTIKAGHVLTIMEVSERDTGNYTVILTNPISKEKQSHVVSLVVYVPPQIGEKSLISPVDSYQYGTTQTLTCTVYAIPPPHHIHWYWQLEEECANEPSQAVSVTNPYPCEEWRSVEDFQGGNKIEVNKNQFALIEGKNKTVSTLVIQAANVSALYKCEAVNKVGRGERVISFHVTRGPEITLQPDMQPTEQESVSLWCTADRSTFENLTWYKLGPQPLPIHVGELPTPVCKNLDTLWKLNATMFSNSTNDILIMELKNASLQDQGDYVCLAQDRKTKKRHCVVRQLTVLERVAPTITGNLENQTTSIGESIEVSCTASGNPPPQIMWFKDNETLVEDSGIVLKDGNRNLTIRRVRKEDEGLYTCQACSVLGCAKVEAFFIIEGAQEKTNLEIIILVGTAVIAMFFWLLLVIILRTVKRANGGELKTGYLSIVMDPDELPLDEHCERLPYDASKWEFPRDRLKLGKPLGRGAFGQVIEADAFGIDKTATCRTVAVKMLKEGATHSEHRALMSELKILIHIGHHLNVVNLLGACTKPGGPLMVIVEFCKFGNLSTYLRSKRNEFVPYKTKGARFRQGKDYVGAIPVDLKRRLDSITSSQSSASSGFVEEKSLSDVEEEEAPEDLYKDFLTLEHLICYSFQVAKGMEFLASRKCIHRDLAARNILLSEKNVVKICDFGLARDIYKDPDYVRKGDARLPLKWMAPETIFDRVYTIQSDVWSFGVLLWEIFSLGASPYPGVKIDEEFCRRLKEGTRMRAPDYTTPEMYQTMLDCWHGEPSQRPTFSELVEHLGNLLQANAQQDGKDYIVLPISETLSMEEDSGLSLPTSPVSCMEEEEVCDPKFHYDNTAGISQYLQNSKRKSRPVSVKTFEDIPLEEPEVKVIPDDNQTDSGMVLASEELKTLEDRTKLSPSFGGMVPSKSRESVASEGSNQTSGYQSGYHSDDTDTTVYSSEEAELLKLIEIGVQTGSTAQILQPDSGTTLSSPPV
row,SMILES,IC50 [µM]
1,O=C1Nc2ccccc2/C1=C\c1sccc1Br,15.4
2,Cn1cccc1/C=C1/C(=O)Nc2ccccc21,20
3,Cc1cccc2c1/C(=C\c1ccc[nH]1)C(=O)N2,31
